Experimental data from patent US9890106B2, “Anti-cancer lead molecule” (KING ABDULLAH UNIVERSITY OF SCIENCE AND TECHNOLOGY, priority 2012, dated 2018).
Values joined by “and” are separate entries in the source; they are usually repeats but may differ in a detail not shown here. Equal entries are not always repeated. Where two headings read alike, the source gives them in different places.

Key:
[1] = system: MCF-7 (human breast cancer cell line); experiment: MTT cytotoxicity assay, MCF-7
Procedure: (§1) The cytotoxicity of plumbagin and derivative ‘A’ was estimated by MTT assay. Cells were plated in a 384-well culture plates (2000 cells per well in 20 μl of media) for 24 h and cells were treated with various concentrations (0, 1.0, 5.0, 10.0, 20.0, 40.0, 80.0 and 100.0 μM) for 12 hr, 24 hr, 36 hr and 48 hr. Following desired incubation time, 5 μl of sterile 5 mg/ml MTT (3-(4,5-Dimethylthiazol-z-yl)-2,5diphenyltetrazolium bromide) (Sigma) dissolved in PBS was added to each well and the cells were incubated for another 4 hr followed by the addition of 30 μl of solubilisation solution (10% SDS, 10 mM HCl) and incubation for 16 hr at 37° C. The OD of each well at 595 nm was determined using a microtiter plate reader (BMG Pherastar).

[2] = system: BJ cell line (human normal fibroblast cells); experiment: MTT cytotoxicity assay, BJ normal fibroblasts
Procedure: as §1

MCF-7 cells [3] = experiment: APOPercentage dye-uptake apoptosis assay, MCF-7; format: cell-based, human
Procedure: (§2) To further test if the cancer cells in present investigation are dying via apoptosis, a dye inclusion assay called APOPercentage was performed. APOPercentage™ is a dye-uptake assay that detects apoptotic cells during phospholipid phosphatidylserine (PS) trans-membrane movement. It has been established previously that APOPercentage™ can be used to detect early stages of apoptosis as efficiently as other technologies like Annexin V.
(§3) The cells were plated in 96 well plates at a density of 5×10^3 cells per well in triplicate in 90 μl of media. The cells were treated with 10 μl of desired concentration of plumbagin and derivative ‘A’ in DMEM media. The cells were incubated at 37° C. for 12 hr and 24 hr in different plates. 5 mM H2O2 was treated for 30 minutes to 1 hour as a positive control. The cells were stained with APOPercentage dye as per instructions from the vendor (Biocolor, UK). The cells were photographed with Nikon TS100 microscope. The OD was measured at 550 nm absorbance using BMG Pherastar and percentage of cells taking up APOPercentage dye was calculated.

[4] = system: HepG2 (Hepatocellular carcinoma) cell line; experiment: MTT cytotoxicity assay, HepG2 (in vitro hepatotoxicity model); conditions: for IC50: read-out: IC50 against HepG2
Procedure: as §1

MCF-7 cells [5] = experiment: Microarray expression and pathway analysis in MCF-7 cells; format: cell-based, human; conditions: for 'Atherosclerosis signaling' pathway: MCF-7 induced with 5 and 10 μM, IPA pathway mapping
Procedure: Microarray analysis was performed in an effort to identify the possible mechanism of action of derivative ‘A’. The MCF-7 cells induced with 5 and 10 μM of derivative ‘A’ and plumbagin were subjected to microarray experiments and the fold-change in expression was calculated as compared to untreated samples. The lists of differentially expressed genes were mapped to pathways using Ingenuity Pathway Analysis (IPA) tool and several key pathways affected by treatment of derivative ‘A’ and plumbagin were identified. ‘Atherosclerosis signaling’ was one of the key pathways that were affected by derivative ‘A’ and not the plumbagin.

[6] = General toxicity in nude mice (mortality, tolerance, body weight); format: in vivo
Procedure: (§4) When the tumor size reached a volume of 150 (150-220) mm^3, the tumor-bearing nude mice derived from MCF-7 cells were randomly assigned into 3 groups (10 mice/group): Group 1 was served as vehicle group (25% PEG400, 200 μl/20 g mouse, i.p, qd for 21 days and 25% PEG400, 400 μl/20g mouse, i.p, qd for 13 days), group 2 was administrated with derivative ‘A’ (5 mg/kg for 21 days and 10 mg/kg for 13 days, i.p, qd), group 3 was administrated with plumbagin (2 mg/kg for 21 days, i.p, qd). The administration period lasted for 3 weeks and 5 weeks. The detailed sacrificing schedule is described in section 5.
If abnormal appearance and behavior or signs of morbidity and/or mortality was seen through the cage side observation, the veterinarian would be notified and proper physical examination and/or necropsy would be performed. The food consumption in each group would be recorded. Frequency: daily just after the cell inoculation and twice a day thereafter starting on first dosing.
(§5) The tumor volume was measured every other day with calipers, and the body weight was measured immediately before measuring the tumor volume throughout the whole study. If the body weight loss is approaching 20%, stop dosing or decreased dosage will be carried out.
The use of different treatment concentrations (dosages) of derivative ‘A’ and plumbagin was due to the high toxicity of plumbagin at 5 mg/kg dose (8 mice died due to toxicity in first few days).

[7] = Description: At the end of the experiment (the 22nd day after initiating drug treatment), the blood from some tumor-bearing mice per group (4 mice from the group 1, 5 mice from the group 2, 4 mice from the group 3) were collected by cardiac puncture, and the mice were sacrificed by cervical dislocation while under deep anesthesia. The other tumor-bearing mice from each group (5 mice from the group 1, 5 mice from the group 2) were sacrificed after another 13 days treatment (the 35th day after initiating drug treatment), the blood was collected while sacrificing the mice. The tumor samples were harvested, weighed, cut into small pieces and snap frozen in liquid nitrogen for RNA extraction. The liver were harvested and fixed in 10% NBF, and embedded in paraffin for histology analysis.
Blood were collected from all animals by terminal bleed for subsequent serum preparation, and serum was prepared at the end of the study for each animal. Serum samples were frozen in microcentrifuge tube at −80° C. To test the liver toxicity of the two compounds, biochemical dictators (ALT, AST) were analyzed in all the serum samples no more than 3 days after collection. The excess serum samples would be sent to client.
The serum was collected as explained above in methods and was used to assess the activity of ALT (alanine aminotransferase) and AST (aspartate aminotransferase).

BJ cells = experiment: APOPercentage dye-uptake apoptosis assay, BJ; format: cell-based, human
Procedure: as §2, §3

[8] = Liver tissue H&E staining; format: in vivo, nude mice; conditions: FIG. 12
Procedure: To test the liver toxicity of the two compounds, livers were harvested from all animals while sacrificing the animals. One piece of the liver was fixed in 10% NBF, and embeded in paraffin for pathology analysis, 1 paraffin block was prepared from each liver sample, 2 slides were used for H&E staining.
The following indications were examined on the photographs for liver tissue H&E staining (FIG. 12): (1) If the liver cells produce fatty degeneration, necrosis, hepatic lobule inflammation or not; (2) If the hepaticus sinus produce dilation or hyperaemia or not; (3) If the hepaticus portal area produce the inflammation or fibrous tissue hyperplasia or not. According to pathology degree from low to high: no lesion “−”, minor lesion “±”, low lesion “+”, middle lesion “++”, high lesion “+++”, highest lesion “++++”. […] The vehicle control is rather showing more toxicity to liver as compared to compounds under testing.

MCF-7 tumor = experiment: MCF-7 xenograft tumor inhibition in nude mice; format: in vivo; set-up: Tumor weight at autopsy, individual mouse (1-5) / Tumor weight at autopsy, AV: unit not given here; conditions: for Tumor volume measured externally, AV / Tumor volume measured externally, individual mouse (1-5) / Tumor weight at autopsy, AV / Tumor weight at autopsy, individual mouse (1-5) / Tumor inhibition rate (C − T)/C × 100%, tumor volume / Tumor inhibition rate (C − T)/C × 100%, tumor weight: Compound A 5 mg/kg, Compound P 2 mg/kg, i.p, qd*21 days; for Tumor inhibition rate (C − T)/C × 100%, tumor volume: based on tumor volume by calipers; for Tumor inhibition rate (C − T)/C × 100%, tumor weight: based on tumor weight at autopsy
Procedure: Amplified and implanted (S.C.) the cancer cells (MCF-7) into 4 nude mice with 1.0×10^7 cells in 0.1 ml PBS plus matrigel (1:1) /mouse, when tumors reach 300-500 mm^3, the tumor masses were harvested, cut into small pieces of approximately 1-2 mm^3, and then surgically implanted into the 42 new nude mice for model set up (eventually 30 tumor-bearing mice are selected).
as §4, §5
Tumor sizes were measured every other day in two dimensions using a caliper, and the volume were expressed in mm^3 using the formula: V=½×a×b^2 where a and b are the long and short diameters of the tumor, respectively.
The tumor mass were weighed and photographed at the end of the experiment after harvested.
Inhibition rate (%)=(average tumor volume of control group-average cancer volume of test group)/average tumor volume of control group ×100%

[9] = MTT time-course screening (12, 24, 36, 48 hr)
[10] = after 24 hr (20 μM per preceding sentence)

CC(=O)Oc1cccc2c1C(=O)C=C(C)C2=O [derivative ‘A’, acetyl plumbagin]
cytotoxicity in MCF-7 ([1]; 10 μM, 12 hr of treatment): comparative to plumbagin | inhibits metabolic activity of cancer cells ([1]; 10 μM, after 12 hr of treatment (FIG. 2)): 90% | activity against MCF-7 cells [1, 9]: selective apoptotic activity | toxicity against BJ cell line ([2]; 10 μM, 12 hr): almost nil | toxicity against BJ cell line, times less than plumbagin ([2]; 10 μM, 24 hr, compared to plumbagin at the same concentration): ~20 times | normal cells BJ inhibited ([2]; 20 μM, after 36 hr of treatment (FIG. 2)): 20% | effect on normal fibroblasts [2, 9]: relatively unaffected | toxicity in BJ cell line, folds less than Plumbagin ([2]; after 36 hr of induction): ~4.5 folds | apoptosis induced in cancer cells (MCF-7 cells [3]; 10 μM, 24 hr): about 50% | cancer cells undergoing apoptosis (MCF-7 cells [3]; [10]): 100% | hepatotoxicity (data based on HepG2 cell line) [4, 9]: negligible | IC50 ([4]; HepG2, 24 hr of treatment): 41.2 µM | gene families down-regulated as compared to untreated samples (MCF-7 cells [5]; MCF-7, 10 μM, interleukins, MMPs, CXCL family members): > 2 fold | 'Atherosclerosis signaling' pathway (MCF-7 cells [5]): affected | animal deaths with treatment ([6]; 5 mg/kg 21 days, 10 mg/kg 13 days, i.p, qd): No animal died | body weight loss ([6]; in the course of the treatment): minimum | ALT and AST values ([7]; in vivo summary): low | mean ALT value (FIG. 10) ([7]; outliers removed): lower than plumbagin and even lower than vehicle treated mice | safety for normal cells (BJ cells; 10 μM, treatment for 24 hr): safe | normal cells undergoing apoptosis (BJ cells; [10]): 20% | effect on normal cells (growth inhibition and apoptosis) (BJ cells; up to 20 μM, treatment for 12 hr): relatively unaffected | liver toxicity by H&E staining of liver tissue [8]: less toxic to liver as compared to plumbagin | Tumor volume measured externally, AV (MCF-7 tumor): 420.9 mm^3 | Tumor volume measured externally, individual mouse (1-5) (MCF-7 tumor): 493.1 mm^3 and 595.4 mm^3 and 151.4 mm^3 and 486.0 mm^3 and 378.5 mm^3 | Tumor weight at autopsy, AV (MCF-7 tumor): 0.3145 | Tumor weight at autopsy, individual mouse (1-5) (MCF-7 tumor): 0.3930 and 0.3862 and 0.3802 and 0.3290 and 0.0843 | Tumor inhibition rate (C − T)/C × 100%, tumor volume (MCF-7 tumor): 37.69% | Tumor inhibition rate (C − T)/C × 100%, tumor weight (MCF-7 tumor): 44.96% | tumor size (FIGS. 6A-6B) (MCF-7 tumor; group of treated mice versus other groups): smaller

CC1=CC(=O)c2c(O)cccc2C1=O [plumbagin, 5-hydroxy-2-methyl-1,4-naphthoquinone, reference compound]
inhibition at 5 µM ([1]; Homo sapiens, MCF7, 12 h, read-out: inhibits metabolic activity of cancer cells): 90% | inhibition at 10 µM ([2]; Homo sapiens, BJ, 12 h, read-out: inhibits metabolic activity of normal cells BJ): ~70% | apoptosis in cancer cells (MCF-7 cells [3]; 5 μM, within 24 hr of treatment): induces apoptosis | IC50 ([4]; Homo sapiens, HepG2, 24 h): 10.2 µM | 'Atherosclerosis signaling' pathway (MCF-7 cells [5]): not | tolerance by mice (body weight loss) ([6]; 2 mg/kg dose, separate regimen with 1, 2 and 3 mg/kg): well tolerated | Tumor volume measured externally, AV (MCF-7 tumor): 560.2 mm^3 | Tumor weight at autopsy, AV (MCF-7 tumor): 0.6020 | Tumor volume measured externally, individual mouse (1-5) (MCF-7 tumor; listed as Compound P): 1441.7 mm^3 and 260.9 mm^3 and 234.5 mm^3 and 303.8 mm^3 | Tumor weight at autopsy, individual mouse (1-5) (MCF-7 tumor; listed as Compound P): 1.3530 and 0.4301 and 0.3675 and 0.2574 | Tumor inhibition rate (C − T)/C × 100%, tumor volume (MCF-7 tumor): 17.07% | Tumor inhibition rate (C − T)/C × 100%, tumor weight (MCF-7 tumor): −5.35%
